How the values were obtained:
[1] = Accelerated stability of ON 01910.Na in formulations containing PEG at 75° C. (HPLC); assay type: physicochemical; settings: for % ON 01910.Na Remaining: 75° C.
Experimental: (§1) The effect of dielectric constant on the stabilization of ON 01910.Na, for example, was investigated, for example, by preparing formulations containing propylene glycol and PEG 400. The accelerated stability studies were preformed at 75 and 90° C. […] The following tables summarizes the results:
(§2) The samples were evaluated by an HPLC assay utilizing a Phenomenex Luna C-18, 5 micron (4.6 mm×250 mm) reverse phase column at ambient conditions. The mobile phase consisted of 60%-0.1% Trifluoroacetic Acid in water: 40% Acetonitrile. The flow rate was set to 2.0 ml/minute and the eluant was monitored at 230 nm

[2] = system: patients with advanced solid tumors; experiment: Phase I dose escalation study by 2-hour intravenous infusion; assay type: in vivo; settings: iv 2 hour infusion, twice per week for 3 weeks, ten days off; no grade 2 or worse toxicities
Experimental: Safety and efficacy of this formulation, for example, is tested in a Phase I clinical study, at The Johns Hopkins Sidney Kimmel Cancer Center, Baltimore, Md., i.e., “Phase I Dose Escalation Study Of ON 01910.Na By 2-Hour Intravenous Infusion In Patients With Advanced Solid Tumors”. U.S. FDA IND #66,780. The objectives of this study include an identification of a maximum tolerated dose (MTD) and a recommended dose for further clinical studies. A further object of the study is to establish a safety profile, i.e., to observe any toxicities. The patients in this study have advanced solid tumors that have failed conventional treatments, or for which no approved therapy exists. An object of the study is particularly to observe efficacy (anti-cancer effects).
The patients are administered the preferred formulation described herein of the ON 01910.Na drug (properly diluted in intravenous solution) over a two hour period, twice per week, for three weeks. The patients are subsequently observed for […], to constitute a four week treatment cycle.
This study started with a single patient at the first starting dose level of 80 mg per patient. If there is no grade 2 or worse drug-related toxicity (side effects) observed in the first four week cycle, then another patient may be dosed at the next higher dose level. The first patient was dosed at 80 mg per patient on Aug. 3, 2004. […]

[3] = Solubility of the Na salt
[4] = Accelerated stability in formulations containing PEG or PG and pH 10 buffer at 90° C. (HPLC); assay type: physicochemical; settings: for % ON 01910.Na Remaining: 90° C.
Experimental: as §1, §2

[5] = Long term stability of 75 mg/mL ON 01910.Na in 100% PEG-400 (HPLC); assay type: physicochemical; settings: 100% PEG-400 for clinical use
Experimental: ON 01910.Na IV solution was manufactured at a concentration of 75 mg/mL in 100% PEG-400. The finished product consisted of 3 mL of drug product aseptically filled into
presterilized 5 mL vials. The manufacturing was in compliance with current Good Manufacturing Practices regulations.
Visual Inspection (a) The zero-time data point is the same as the release data generated from the manufactured clinical lot. Analytical Methods: (a) HPLC—Chromatography is performed using a Phenomenex Luna C-18 (2), 5 micron
(4.6 mm×250 mm, PN 00G-4252-E0) column at ambient conditions. The mobile phase used is 60%-0.1% trifluoroacetic acid in water; 40% acetonitrile. The flow rate is set at 2.0 ml/min Injection volume is 50 μL. Detection is accomplished by means of a UV/VIS detector at 230, 254, and 320 nm. Instrument control and data acquisition is facilitated using a Waters Millennium (V 2.15) software package. The external calibration is obtained using ON 01910.Na standard solutions prepared in 50:50 acetonitrile:water. This analytical method was validated.

[6] = Infusion bag compatibility study; assay type: physicochemical; settings: 75 mg/ml in PEG-400, bags containing 0.45% NaCl and 0.9% NaCl solutions
Experimental: This example summarizes the results of a compatibility study of ON 01910.Na drug product (75 mg/ml in PEG-400) in IV Infusion Bags and Sets containing 0.45% NaCl and 0.9% NaCl solutions. The study consisted of preparing solutions of 80 mg of the ON 01910.Na in 250 ml 0.9% NaCl, and 800 mg of ON01910.Na in 250 ml 0.45% NaCl, and storing them in IV infusion bags for over 24 hours to determine if there is any product loss or instability. The solutions were also passed through infusion sets at a rate of approximately 2 ml per minute for 120 minutes and monitored for product loss or instability.
The samples were analyzed by HPLC for Assay, % Recovery, and Impurities. Appearance, Osmolarity, and pH of the solutions were also monitored throughout the study. […]
Five ml of solution were removed from each bag for analysis at the following time points: T=0, 1 hr, 2 hr, 4 hr, 8 hr, and 24.5 hr. Appearance, Assay, % Impurities, % Recovery, Osmolarity, and pH were analyzed at each time points.
Results are shown in Tables 10-13. % Recovery is the percentage of drug substance as compared to the calculated amount, while % T0 is defined as the percentage of drug substance as compared to drug substance at the initial timepoint. […]

Compound: COc1cc(OC)c(/C=C/S(=O)(=O)Cc2ccc(OC)c(NCC(=O)[O-])c2)c(OC)c1.[Na+] [ON 01910.Na, (E)-2,4,6-trimethoxystyryl-3-carboxymethylamino-4-methoxybenzylsulfone]
- % ON 01910.Na Remaining ([1]; 0% PEG, 0 D): 100.00%
- % ON 01910.Na Remaining ([1]; 0% PEG, 0.25 D): 86.47%
- % ON 01910.Na Remaining ([1]; 0% PEG, 2 D): 11.20%
- % ON 01910.Na Remaining ([1]; 0% PEG, 7 D): 0.47%
- % ON 01910.Na Remaining ([1]; 0% PEG, 14 D): 0.47%
- % ON 01910.Na Remaining ([1]; 0% PEG, 28 D): 0.02%
- % ON 01910.Na Remaining ([1]; 25% PEG, 0 D): 100.00%
- % ON 01910.Na Remaining ([1]; 25% PEG, 0.25 D): 98.12%
- % ON 01910.Na Remaining ([1]; 25% PEG, 2 D): 66.89%
- % ON 01910.Na Remaining ([1]; 25% PEG, 7 D): 42.13%
- % ON 01910.Na Remaining ([1]; 25% PEG, 14 D): 32.03%
- % ON 01910.Na Remaining ([1]; 25% PEG, 28 D): 29.80%
- % ON 01910.Na Remaining ([1]; 50% PEG, 0 D): 100.00%
- % ON 01910.Na Remaining ([1]; 50% PEG, 0.25 D): 100.32%
- % ON 01910.Na Remaining ([1]; 50% PEG, 2 D): 94.76%
- % ON 01910.Na Remaining ([1]; 50% PEG, 7 D): 86.06%
- % ON 01910.Na Remaining ([1]; 50% PEG, 14 D): 75.80%
- % ON 01910.Na Remaining ([1]; 50% PEG, 28 D): 68.73%
- stability on addition of propylene glycol or PEG 400 to an aqueous formulation ([1]; accelerated studies at 75 and 90° C.): drastically improved
- dose that can be safely administered [2]: ≥ 2080 mg
- solubility [3]: very soluble
- stability on adjusting the pH of the aqueous medium above 8 [4]: further improved
- % ON 01910.Na Remaining ([4]; PEG:Buffer, After 72 hours): 94.22%
- % ON 01910.Na Remaining ([4]; PEG:Buffer, Control): 100.00%
- % ON 01910.Na Remaining ([4]; PEG:Water, After 72 hours): 22.28%
- % ON 01910.Na Remaining ([4]; PEG:Water, Control): 100.00%
- % ON 01910.Na Remaining ([4]; PG:Buffer, After 72 hours): 79.62%
- % ON 01910.Na Remaining ([4]; PG:Buffer, Control): 100.00%
- % ON 01910.Na Remaining ([4]; PG:Water, After 72 hours): 15.79%
- % ON 01910.Na Remaining ([4]; PG:Water, Control): 100.00%
- % ON 01910.Na Remaining ([4]; PH 10 buffer, After 72 hours): 50.18%
- % ON 01910.Na Remaining ([4]; PH 10 buffer, Control): 100.00%
- % ON 01910.Na Remaining ([4]; Water, After 72 hours): 5.36%
- % ON 01910.Na Remaining ([4]; Water, Control): 100.00%
- expected degradation over a two year period [5]: not be any Significant Degradation
- long term stability in the current formulation [5]: Extremely Stable
- stability in IV infusion bags [6]: stable over 24 hours
